Ends that are not written are not given here.
System: methicillin resistant Staphylococcus aureus (MRSA) biofilm
Experiment: not given
Settings: approximate peptide concentration […] (around 3 μg/ml); compared to untreated samples
Procedure, shortened: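 Static biofilm assay: 1/100 dilutions of overnight cultures grown in BM2 medium (pH 7, glucose, Casamino Acids) or Luria Broth with peptide added at time zero. After 22–46 h, adherent biofilm was stained with crystal violet and read at 595 nm. Some peptides were also tested on K. pneumoniae under flow in a Bioflux system.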

Point of comparison: “1002-W2: single substituted 1002 peptide (VWRWLIVWRIRK-NH2) [Peptide 1002-W2]”, “% Biofilm inhibition” value 61%. Against it:
- HH2-K5: single substituted HH2 peptide (VQLRKRVAVIRA-NH2) — lower, 27%
- 1018-Q7: single substituted 1018 peptide (VRLIVAQRIWRR-NH2) [Peptide 1018-Q7] — lower, 28%
- 1002-Q11: single substituted 1002 peptide (VQRWLIVWRIQK-NH2) [Peptide 1002-Q11] — higher, 67%
- 1018-W8: single substituted 1018 peptide (VRLIVAVWIWRR-NH2) [Peptide 1018-W8] — lower, 43%
- 1018-G3: single substituted 1018 peptide (VRGIVAVRIWRR-NH2) [Peptide 1018-G3] — lower, 42%
- 1002-W1: single substituted 1002 peptide (WQRWLIVWRIRK-NH2) [Peptide 1002-W1] — higher, 76%
- 1002-G4: single substituted 1002 peptide (VQRGLIVWRIRK-NH2) [Peptide 1002-G4] — lower, 42%
- 1002-L8: single substituted 1002 peptide (VQRWLIVLRIRK-NH2) [Peptide 1002-L8] — lower, 57%
- 1018-I6: single substituted 1018 peptide (VRLIVIVRIWRR-NH2) [Peptide 1018-I6] — higher, 65%
- 1002-R5: single substituted 1002 peptide (VQRWRIVWRIRK-NH2) [Peptide 1002-R5] — higher, 62%
- HH2-R8: single substituted HH2 peptide (VQLRIRVRVIRA-NH2) — higher, 71%
- HH2-Q3: single substituted HH2 peptide (VQQRIRVAVIRA-NH2) — lower, 28%
- 1002-R2: single substituted 1002 peptide (VRRWLIVWRIRK-NH2) [Peptide 1002-R2] — lower, 60%
- HH2-Q9: single substituted HH2 peptide (VQLRIRVAQIRA-NH2) — lower, 43%

System: human peripheral blood mononuclear cells (MCP-1)
Experiment: SPOT-synthesized derivative screen: production of chemokine MCP-1
Assay type: cell-based
Settings: Table 12; No LPS; human PBMC, peptide at ~18-24 μM
Procedure, shortened: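 PBMC from heparinized healthy-donor venous blood, Ficoll-separated, cultured at 0.75 to 1×10^6 cells/ml, 37 °C, 5% CO2, under the treatment regimens. MCP-1 in cell-free supernatants measured by capture ELISA.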

Point of comparison: “1002-L8: single substituted 1002 peptide (VQRWLIVLRIRK-NH2) [Peptide 1002-L8]”, “Fold increase in MCP1 cf. untreated cells” value 10.8. Against it:
- HH2-K5: single substituted HH2 peptide (VQLRKRVAVIRA-NH2) — higher, 12
- 1018-Q7: single substituted 1018 peptide (VRLIVAQRIWRR-NH2) [Peptide 1018-Q7] — lower, 0.7
- 1002-Q11: single substituted 1002 peptide (VQRWLIVWRIQK-NH2) [Peptide 1002-Q11] — higher, 13.5
- 1018-W8: single substituted 1018 peptide (VRLIVAVWIWRR-NH2) [Peptide 1018-W8] — lower, 0.8
- 1018-G3: single substituted 1018 peptide (VRGIVAVRIWRR-NH2) [Peptide 1018-G3] — lower, 1.5
- 1002-W1: single substituted 1002 peptide (WQRWLIVWRIRK-NH2) [Peptide 1002-W1] — lower, 3.6
- 1002-G4: single substituted 1002 peptide (VQRGLIVWRIRK-NH2) [Peptide 1002-G4] — lower, 1.1
- 1018-I6: single substituted 1018 peptide (VRLIVIVRIWRR-NH2) [Peptide 1018-I6] — lower, 1.6
- 1002-R5: single substituted 1002 peptide (VQRWRIVWRIRK-NH2) [Peptide 1002-R5] — lower, 0.9
- HH2-R8: single substituted HH2 peptide (VQLRIRVRVIRA-NH2) — higher, 121
- 1002-W2: single substituted 1002 peptide (VWRWLIVWRIRK-NH2) [Peptide 1002-W2] — higher, 11.8
- HH2-Q3: single substituted HH2 peptide (VQQRIRVAVIRA-NH2) — lower, 6.8
- 1002-R2: single substituted 1002 peptide (VRRWLIVWRIRK-NH2) [Peptide 1002-R2] — lower, 4.5
- HH2-Q9: single substituted HH2 peptide (VQLRIRVAQIRA-NH2) — higher, 34

Same assay, conditions: Table 12; No LPS; human PBMC, peptide at ~18-24 μM; background subtracted 139 (HH2 derivatives), 170 (1018 derivatives), 242 (1002 and hybrid peptides) pg/ml

Point of comparison: “1002-G4: single substituted 1002 peptide (VQRGLIVWRIRK-NH2) [Peptide 1002-G4]”, “MCP1” value 33.0 pg/mL. Against it:
- HH2-K5: single substituted HH2 peptide (VQLRKRVAVIRA-NH2) — 58-fold higher, 1923 pg/mL
- 1018-Q7: single substituted 1018 peptide (VRLIVAQRIWRR-NH2) [Peptide 1018-Q7] — lower, -54 pg/mL
- 1002-Q11: single substituted 1002 peptide (VQRWLIVWRIQK-NH2) [Peptide 1002-Q11] — 92-fold higher, 3022.9 pg/mL
- 1018-W8: single substituted 1018 peptide (VRLIVAVWIWRR-NH2) [Peptide 1018-W8] — lower, -28 pg/mL
- 1018-G3: single substituted 1018 peptide (VRGIVAVRIWRR-NH2) [Peptide 1018-G3] — 2.5-fold higher, 83 pg/mL
- 1002-W1: single substituted 1002 peptide (WQRWLIVWRIRK-NH2) [Peptide 1002-W1] — 19-fold higher, 622.0 pg/mL
- 1002-L8: single substituted 1002 peptide (VQRWLIVLRIRK-NH2) [Peptide 1002-L8] — 72-fold higher, 2367.1 pg/mL
- 1018-I6: single substituted 1018 peptide (VRLIVIVRIWRR-NH2) [Peptide 1018-I6] — 3.3-fold higher, 110 pg/mL
- 1002-R5: single substituted 1002 peptide (VQRWRIVWRIRK-NH2) [Peptide 1002-R5] — lower, -36.2 pg/mL
- HH2-R8: single substituted HH2 peptide (VQLRIRVRVIRA-NH2) — 57-fold higher, 1890 pg/mL
- 1002-W2: single substituted 1002 peptide (VWRWLIVWRIRK-NH2) [Peptide 1002-W2] — 79-fold higher, 2611.5 pg/mL
- HH2-Q3: single substituted HH2 peptide (VQQRIRVAVIRA-NH2) — 30-fold higher, 989 pg/mL
- 1002-R2: single substituted 1002 peptide (VRRWLIVWRIRK-NH2) [Peptide 1002-R2] — 25-fold higher, 840.0 pg/mL
- HH2-Q9: single substituted HH2 peptide (VQLRIRVAQIRA-NH2) — 170-fold higher, 5588 pg/mL

System: LPS-stimulated human peripheral blood mononuclear cells (IL1-β)
Experiment: not given
Assay type: cell-based
Settings: Table 12; cells stimulated with 10 ng/ml LPS

Point of comparison: “1018-I6: single substituted 1018 peptide (VRLIVIVRIWRR-NH2) [Peptide 1018-I6]”, “Fold change in IL1β relative to no peptide LPS stimulated cells” value 0.44. Against it:
- HH2-K5: single substituted HH2 peptide (VQLRKRVAVIRA-NH2) — higher, 1.19
- 1018-Q7: single substituted 1018 peptide (VRLIVAQRIWRR-NH2) [Peptide 1018-Q7] — higher, 1.04
- 1002-Q11: single substituted 1002 peptide (VQRWLIVWRIQK-NH2) [Peptide 1002-Q11] — lower, 0.05
- 1018-W8: single substituted 1018 peptide (VRLIVAVWIWRR-NH2) [Peptide 1018-W8] — lower, 0.34
- 1018-G3: single substituted 1018 peptide (VRGIVAVRIWRR-NH2) [Peptide 1018-G3] — higher, 0.57
- 1002-W1: single substituted 1002 peptide (WQRWLIVWRIRK-NH2) [Peptide 1002-W1] — lower, 0.05
- 1002-G4: single substituted 1002 peptide (VQRGLIVWRIRK-NH2) [Peptide 1002-G4] — lower, 0.29
- 1002-L8: single substituted 1002 peptide (VQRWLIVLRIRK-NH2) [Peptide 1002-L8] — lower, 0.06
- 1002-R5: single substituted 1002 peptide (VQRWRIVWRIRK-NH2) [Peptide 1002-R5] — lower, 0.14
- HH2-R8: single substituted HH2 peptide (VQLRIRVRVIRA-NH2) — higher, 0.79
- 1002-W2: single substituted 1002 peptide (VWRWLIVWRIRK-NH2) [Peptide 1002-W2] — lower, 0.05
- HH2-Q3: single substituted HH2 peptide (VQQRIRVAVIRA-NH2) — higher, 0.87
- 1002-R2: single substituted 1002 peptide (VRRWLIVWRIRK-NH2) [Peptide 1002-R2] — lower, 0.05
- HH2-Q9: single substituted HH2 peptide (VQLRIRVAQIRA-NH2) — higher, 1.01

Same assay, conditions: Table 12; cells stimulated with 10 ng/ml LPS; LPS alone 1313 (HH2 derivatives), 1927 (1018 derivatives), 2455 (1002 and hybrid peptides) pg/ml

Point of comparison: “1002-Q11: single substituted 1002 peptide (VQRWLIVWRIQK-NH2) [Peptide 1002-Q11]”, “IL1β Production” value 127 pg/mL. Against it:
- HH2-K5: single substituted HH2 peptide (VQLRKRVAVIRA-NH2) — 12-fold higher, 1559 pg/mL
- 1018-Q7: single substituted 1018 peptide (VRLIVAQRIWRR-NH2) [Peptide 1018-Q7] — 11-fold higher, 1368 pg/mL
- 1018-W8: single substituted 1018 peptide (VRLIVAVWIWRR-NH2) [Peptide 1018-W8] — 3.5-fold higher, 448 pg/mL
- 1018-G3: single substituted 1018 peptide (VRGIVAVRIWRR-NH2) [Peptide 1018-G3] — 5.9-fold higher, 748 pg/mL
- 1002-W1: single substituted 1002 peptide (WQRWLIVWRIRK-NH2) [Peptide 1002-W1] — the same, 127 pg/mL
- 1002-G4: single substituted 1002 peptide (VQRGLIVWRIRK-NH2) [Peptide 1002-G4] — 5.7-fold higher, 723 pg/mL
- 1002-L8: single substituted 1002 peptide (VQRWLIVLRIRK-NH2) [Peptide 1002-L8] — within 1.5-fold, 135 pg/mL
- 1018-I6: single substituted 1018 peptide (VRLIVIVRIWRR-NH2) [Peptide 1018-I6] — 4.6-fold higher, 582 pg/mL
- 1002-R5: single substituted 1002 peptide (VQRWRIVWRIRK-NH2) [Peptide 1002-R5] — 2.7-fold higher, 349 pg/mL
- HH2-R8: single substituted HH2 peptide (VQLRIRVRVIRA-NH2) — 8.2-fold higher, 1042 pg/mL
- 1002-W2: single substituted 1002 peptide (VWRWLIVWRIRK-NH2) [Peptide 1002-W2] — the same, 127 pg/mL
- HH2-Q3: single substituted HH2 peptide (VQQRIRVAVIRA-NH2) — 9-fold higher, 1141 pg/mL
- 1002-R2: single substituted 1002 peptide (VRRWLIVWRIRK-NH2) [Peptide 1002-R2] — the same, 127 pg/mL
- HH2-Q9: single substituted HH2 peptide (VQLRIRVAQIRA-NH2) — 10-fold higher, 1321 pg/mL
